Assay results as given in US10519114B2, “Peptidomimetics and methods of using the same” (The Regents of the University of Michigan, priority 2016, dated 2019).

Assays:
[1] = biological target: T1, rat μ (C6-MOR) opioid receptor (Rattus norvegicus, UniProt P33535); assay: Radioligand binding assay, [3H]diprenorphine displacement, MOR; details: displacement of 0.2 nM [3H]diprenorphine, C6-MOR membranes; mean ± standard error
T1 construct: expressed in transfected cells
Procedure, shortened: (§1)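 Ki values come from logistic fits of competition data, with filter-bound radioactivity counted after displacement of 0.2 nM [3H]diprenorphine. Membranes were from rat receptor-transfected C6 cells (MOR, DOR) or human KOR-expressing CHO cells. Incubation ran 1 h at room temperature in pH 7.4 Tris-HCl.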

[2] = biological target: T2, rat δ (C6-DOR) opioid receptor (Rattus norvegicus, UniProt P33533); assay: Radioligand binding assay, [3H]diprenorphine displacement, DOR; details: displacement of 0.2 nM [3H]diprenorphine, C6-DOR membranes; mean ± standard error
T2 construct: expressed in transfected cells
T2 sequence (P33533 whole entry): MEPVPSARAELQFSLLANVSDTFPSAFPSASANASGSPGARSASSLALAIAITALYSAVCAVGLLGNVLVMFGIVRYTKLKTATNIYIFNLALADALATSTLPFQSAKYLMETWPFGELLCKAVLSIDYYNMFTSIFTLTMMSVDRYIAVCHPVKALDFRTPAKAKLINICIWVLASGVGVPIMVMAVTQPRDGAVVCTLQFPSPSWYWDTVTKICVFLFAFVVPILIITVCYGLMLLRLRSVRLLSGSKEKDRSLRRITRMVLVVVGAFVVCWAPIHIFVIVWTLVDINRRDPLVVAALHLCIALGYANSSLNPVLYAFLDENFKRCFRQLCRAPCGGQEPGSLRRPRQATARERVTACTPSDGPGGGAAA
Procedure, shortened: as §1

[3] = biological target: T3, human κ (CHO-KOR) opioid receptor (Homo sapiens, UniProt P41145); assay: Radioligand binding assay, [3H]diprenorphine displacement, KOR; details: displacement of 0.2 nM [3H]diprenorphine, CHO-KOR membranes; mean ± standard error
T3 construct: expressed in transfected cells
T3 sequence (P41145 whole entry): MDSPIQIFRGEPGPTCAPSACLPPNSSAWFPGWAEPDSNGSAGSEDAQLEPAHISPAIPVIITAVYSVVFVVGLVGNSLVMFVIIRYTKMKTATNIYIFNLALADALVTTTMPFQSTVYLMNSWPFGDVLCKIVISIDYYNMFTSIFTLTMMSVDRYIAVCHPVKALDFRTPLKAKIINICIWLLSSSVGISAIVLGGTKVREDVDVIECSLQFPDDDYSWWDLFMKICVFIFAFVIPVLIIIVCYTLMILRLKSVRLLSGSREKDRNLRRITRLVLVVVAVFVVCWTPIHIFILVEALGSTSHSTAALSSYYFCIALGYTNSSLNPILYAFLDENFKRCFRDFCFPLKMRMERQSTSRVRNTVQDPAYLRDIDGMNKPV
Procedure, shortened: as §1

[4] = biological target: T1, rat μ (C6-MOR) opioid receptor; assay: Stimulation of [35S]GTPγS binding, MOR; assay type: biochemical; details: for EC50: [35S]GTPγS binding, C6-MOR membranes, mean ± standard error; for Emax: [35S]GTPγS maximal stimulation compared with 10 μM standard DAMGO
Procedure, shortened: (§2)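 Peptide-stimulated [35S]GTPγS (0.1 nM) binding, with 30 μM GDP, 5 mM MgCl2 and 100 mM NaCl at pH 7.4, was measured over 1 h at room temperature. Membranes came from rat MOR/DOR C6 or human KOR CHO cells. Filter-retained counts were expressed against 10 μM DAMGO, DPDPE or U69,593 respectively; maxima were fitted nonlinearly.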

[5] = biological target: T2, rat δ (C6-DOR) opioid receptor; assay: Stimulation of [35S]GTPγS binding, DOR; assay type: biochemical; details: for EC50 (nm) DOR / EC50: [35S]GTPγS binding, C6-DOR membranes, mean ± standard error; for % stimulation DOR / Emax: [35S]GTPγS maximal stimulation compared with 10 μM standard DPDPE
Procedure, shortened: as §2

C57BL/6 mice = assay: Antinociception, warm water tail withdrawal assay;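 on Antinociceptive activity: fully efficacious means no withdrawal up to the 20 s cutoff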; assay type: in vivo; details: mouse tail withdrawal; for Antinociceptive activity: 50° C. water bath, cutoff 20 s, ip; for Duration: duration of antinociceptive action, 50° C.
Procedure: In Vivo Pharmacology. Animals. Adult male C57BL/6 mice weighing between 20 and 30 g at 8-16 weeks old were used for the current experiments (obtained from Jackson Laboratories (Bar Harbor, Me.), Harlan (Indianapolis, Ind.), or bred in-house). Mice were group-housed and had free access to food and water at all times. Experiments were conducted in the housing room, which was maintained on a 12 h light/dark cycle (with lights on at 0700). Each mouse was used only once and experiments were conducted between 11 a.m. and 4 p.m. Studies were performed in accordance with the University of Michigan Committee on the Use and Care of Animals and the Guide for the Care and Use of Laboratory Animals (National Research Council, 2011 publication).
Antinociception. The antinociceptive effects of the compounds disclosed herein and morphine can be evaluated in the warm water tail withdrawal assay using a cumulative dosing procedure. To determine tail withdrawal latencies, each mouse was placed briefly into a plastic, cylindrical restrainer and 2-3 cm of the tail tip was placed into a water bath maintained at 50° C. The latency to withdraw the tail was recorded with a maximum cutoff time of 20 s. […] Each animal received an injection of saline (intraperitoneal, ip) and then 30 min later, the baseline withdrawal latencies were recorded and ranged between 3 and 6 s. Following baseline determinations, three increasing doses (1, 2.2, and 6.8 mg/kg) of 1(4R) were given at 30 min intervals to provide final doses of 1, 3.2, and 10 mg/kg. Thirty minutes after each injection, the tail withdrawal latency was measured as described above. To confirm that 1(4R) was acting at opioid receptors, the cumulative dose response was repeated over the doses 3.2, 10, and 32 mg/kg following a 30 min pretreatment with 1 mg/kg naltrexone (ip). To determine the time-course of antinociceptive action the tail-withdrawal test was performed at varying times following administration of morphine (10 mg/kg, ip) or 1(4R) (10 mg/kg, ip).

[6] = biological target: T3, human κ (CHO-KOR) opioid receptor; assay: Stimulation of [35S]GTPγS binding, KOR; assay type: biochemical
Procedure, shortened: as §2

[7] = [35S]GTPγS binding, CHO-KOR membranes, mean ± standard error
[8] = [35S]GTPγS maximal stimulation compared with 10 μM standard U-69,593

T1 sequence (P33535 whole entry): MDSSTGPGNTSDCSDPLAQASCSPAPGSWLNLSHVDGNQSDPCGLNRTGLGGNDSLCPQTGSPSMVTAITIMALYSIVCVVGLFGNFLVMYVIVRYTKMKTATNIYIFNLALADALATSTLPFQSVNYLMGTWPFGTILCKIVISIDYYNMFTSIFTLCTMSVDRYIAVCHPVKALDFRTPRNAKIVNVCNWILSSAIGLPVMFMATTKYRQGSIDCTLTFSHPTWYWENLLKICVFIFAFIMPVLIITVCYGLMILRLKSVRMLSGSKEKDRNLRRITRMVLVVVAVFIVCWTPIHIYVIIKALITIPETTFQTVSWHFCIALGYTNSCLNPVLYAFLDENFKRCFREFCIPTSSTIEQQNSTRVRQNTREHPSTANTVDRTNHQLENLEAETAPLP

## Cc1cc(O)cc(C)c1C[C@H](N)C(=O)N[C@@H]1CCNc2c(Cc3ccccc3)cc(Cc3ccccc3)cc21 [Compound 1041]
[1]
  Ki: 0.73 nM
[2]
  Ki: 0.86 nM
[3]
  Ki: 13.2 nM
[4]
  EC50: 7.25 nM
  Emax: 73%
[5]
  EC50 (nm) DOR: dns
  % stimulation DOR: dns
C57BL/6 mice
  Antinociceptive activity: Inactive

## Cc1cc(O)cc(C)c1C[C@H](N)C(=O)N[C@@H]1CCNc2c(F)cc(Cc3ccccc3)cc21 [Compound 1090]
C57BL/6 mice
  Antinociceptive activity: Inactive

## Cc1cc(O)cc(C)c1C[C@H](N)C(=O)N[C@@H]1CCNc2c(CN3CCCCC3)cc(Cc3ccccc3)cc21 [Compound 1097]
[1]
  Ki: 0.07 ± 0.03 nM
[2]
  Ki: 2.41 nM
[3]
  Ki: 0.71 nM
[4]
  EC50: 2.32 ± 0.21 nM
  Emax: 93 ± 1.67%
C57BL/6 mice
  Antinociceptive activity: Inactive

## Cc1cc(O)cc(C)c1C[C@H](N)C(=O)N[C@@H]1CCNc2c(C)cc(Cc3ccccc3)cc21 [Compound 1100]
[1]
  Ki: 2.63 nM
[2]
  Ki: 1.09 nM
[3]
  Ki: 18.3 nM
C57BL/6 mice
  Duration: 90 min
  Antinociceptive activity: Fully efficacious

## CCOC(=O)c1cc(Cc2ccccc2)cc2c1NCC[C@H]2NC(=O)[C@@H](N)Cc1c(C)cc(O)cc1C [Compound 1102]
[1]
  Ki: 1.01 ± 0.28 nM
[2]
  Ki: 4.2 nM
[3]
  Ki: 48.7 nM
[4]
  EC50: 4.91 ± 0.28 nM
  Emax: 70.5 ± 2.61%
[5]
  EC50 (nm) DOR: dns
  % stimulation DOR: dns
C57BL/6 mice
  Duration: 150 min
  Antinociceptive activity: Fully efficacious

## Cc1cc(O)cc(C)c1C[C@H](N)C(=O)N[C@@H]1CCNc2c(C(=O)NCc3ccccc3)cc(Cc3ccccc3)cc21 [Compound 1104]
[1]
  Ki: 0.36 nM
[2]
  Ki: 2.17 nM
[3]
  Ki: 29.4 nM
[4]
  EC50: 4.18 nM
  Emax: 79%
[5]
  EC50 (nm) DOR: dns
  % stimulation DOR: dns
C57BL/6 mice
  Antinociceptive activity: Inactive

## Cc1cc(O)cc(C)c1C[C@H](N)C(=O)N[C@@H]1CCOc2ccc(Cc3ccccc3)cc21 [Compound 1111]
[1]
  Ki: 0.046 ± 0.028 nM
[2]
  Ki: 8.65 ± 1.61 nM
[3]
  Ki: 58.3 ± 14.1 nM
[4]
  EC50: 4.85 ± 2.14 nM
  Emax: 69.7 ± 5.97%
[5]
  EC50: 118 ± 2.45 nM
  Emax: 8.97 ± 4.78%
[6]; [7]
  EC50: 662 ± 152 nM
[6]; [8]
  Emax: 28.3 ± 6.71%

## Cc1cc(O)cc(C)c1C[C@H](N)C(=O)N[C@H]1CCOc2ccc(Cc3ccccc3)cc21 [Compound 1112]
[1]
  Ki: 6.07 ± 2.41 nM
[2]
  Ki: 260 ± 62.9 nM
[3]
  Ki: 354 ± 37.1 nM
[4]
  EC50: 654 ± 361 nM
  Emax: 7.18 ± 2.41%
[5]
  Emax: 2.48 ± 3.08%
[6]; [8]
  Emax: -0.061 ± 0.45%

## Cc1cc(O)cc(C)c1C[C@H](N)C(=O)N[C@@H]1CCCc2ccccc21 [Compound 1113]
[1]
  Ki: 25.6 ± 10.9 nM
[2]
  Ki: 640 ± 218 nM
[3]
  Ki: 2060 ± 582 nM
[4]
  Emax: 3.44 ± 2.09%
[5]
  Emax: -0.76 ± 0.62%
[6]; [8]
  Emax: -1.05%

## Cc1cc(O)cc(C)c1C[C@H](N)C(=O)NC1CCc2ccc(Cc3ccccc3)cc21 (stereo partly drawn) [Compound 1114]
[1]
  Ki: 0.55 ± 0.09 nM
[2]
  Ki: 29.9 ± 10.1 nM
[3]
  Ki: 143 ± 45.4 nM
[4]
  EC50: 18.3 ± 8.14 nM
  Emax: 42.6 ± 8.65%
[5]
  Emax: 3.07 ± 1.82%
[6]; [7]
  EC50: 1600 nM
[6]; [8]
  Emax: 3.7 ± 4.06%

## Cc1cc(O)cc(C)c1C[C@H](N)C(=O)N[C@@H]1CCCc2ccc(-c3cccc4ccccc34)cc21 [Compound 1115]
[1]
  Ki: 5.44 ± 2.7 nM
[2]
  Ki: 45.5 ± 26.9 nM
[3]
  Ki: 131 ± 42.3 nM
[4]
  Emax: 0.34 ± 3.26%
[5]
  Emax: -2.57 ± 4.3%
[6]; [7]
  EC50: 200 nM
[6]; [8]
  Emax: 3.82 ± 3.2%

## Cc1cc(O)cc(C)c1C[C@H](N)C(=O)N[C@@H]1CCCc2ccc(-c3ccc4ccccc4c3)cc21 [Compound 1116]
[1]
  Ki: 0.24 ± 0.12 nM
[2]
  Ki: 6.03 ± 0.2 nM
[3]
  Ki: 315.9 ± 0.91 nM
[4]
  Emax: -1.1 ± 1.61%
[5]
  Emax: 1.75 ± 1.44%
[6]; [7]
  EC50: 237 nM
[6]; [8]
  Emax: 5.57 ± 8.53%

## Cc1cc(O)cc(C)c1C[C@H](N)C(=O)N[C@@H]1CCCc2ccc(-c3ccccc3)cc21 [Compound 1117]
[1]
  Ki: 0.57 ± 0.32 nM
[2]
  Ki: 3.99 ± 1.31 nM
[3]
  Ki: 20.9 ± 4.12 nM
[4]
  EC50: 9.51 ± 3.3 nM
  Emax: 28.7 ± 2.39%
[5]
  EC50: 181 ± 28.2 nM
  Emax: 21.2 ± 10.7%
[6]; [7]
  EC50: 321 ± 176 nM
[6]; [8]
  Emax: 45.6 ± 1.77%

## Cc1cc(O)cc(C)c1C[C@H](N)C(=O)N[C@@H]1CCSc2ccc(Cc3ccccc3)cc21 [Compound 1123]
[1]
  Ki: 0.15 ± 0.04 nM
[2]
  Ki: 4.79 ± 1.11 nM
[3]
  Ki: 48.4 ± 23.1 nM
[4]
  EC50: 1.92 ± 0.54 nM
  Emax: 79.9 ± 7.51%
[5]
  EC50 (nm) DOR: dns
  % stimulation DOR: dns
[6]; [7]
  EC50: 337 ± 205 nM
[6]; [8]
  Emax: 10.3 ± 5.17%

## Cc1cc(O)cc(C)c1C[C@H](N)C(=O)N[C@@H]1CCS(=O)(=O)c2ccc(Cc3ccccc3)cc21 [Compound 1124]
[1]
  Ki: 0.06 ± 0.01 nM
[2]
  Ki: 2.34 ± 1.42 nM
[3]
  Ki: 27.2 ± 5.99 nM
[4]
  EC50: 0.72 ± 0.11 nM
  Emax: 94.5 ± 3.04%
[5]
  EC50: 126 ± 72.5 nM
  Emax: 45.2 ± 5.62%
[6]; [7]
  EC50: 721 ± 317 nM
[6]; [8]
  Emax: 35.8 ± 2.15%

## CC(=O)N1CC[C@@H](NC(=O)[C@@H](N)Cc2c(C)cc(O)cc2C)c2cc(CC3Cc4ccccc4C3C)ccc21 (stereo partly drawn) [Compound 1125]
[1]
  Ki: 0.28 ± 0.12 nM
[2]
  Ki: 0.67 ± 0.08 nM
[3]
  Ki: 2.53 ± 1.52 nM
[4]
  EC50: 3.03 ± 2.32 nM
  Emax: 69.5 ± 10.4%
[5]
  EC50 (nm) DOR: dns
  % stimulation DOR: dns
[6]; [7]
  EC50 (nm) KOR: dns
[6]; [8]
  % stimulation KOR: dns

## Cc1cc(O)cc(C)c1C[C@H](N)C(=O)N[C@@H]1CCNc2c(CN3CCNCC3)cc(Cc3ccccc3)cc21 [Compound 1131]
[1]
  Ki: 0.35 nM
[2]
  Ki: 22 nM
[3]
  Ki: 1.9 nM
[4]
  EC50: 8 nM
  Emax: 61%
[5]
  EC50: 280 nM
  Emax: 17%
[6]; [7]
  EC50: 190 nM
[6]; [8]
  Emax: 18%
